Reference: ChEMBL document CHEMBL4002599, “Structure-based design and synthesis of imidazo[1,2-a]pyridine derivatives as novel and potent Nek2 inhibitors with in vitro and in vivo antitumor activities” (Eur J Med Chem, 2017)
pIC50: −log10 of the molar value. The source made the active and inactive calls. The calls are words filed in the database; no cut-off is given here.

Key:
Rattus norvegicus [1] = assay: AUC (0 to t) in Sprague-Dawley rat at 1 mg/kg, iv administered as bolus dose by LC-MS/MS method; format: ADME, organism-based; details: in vivo
[2] = Clearance in Sprague-Dawley rat at 1 mg/kg, iv administered as bolus dose by LC-MS/MS method; format: ADME, organism-based; details: in vivo
[3] = Half-life in Sprague-Dawley rat at 1 mg/kg, iv administered as bolus dose by LC-MS/MS method; format: ADME, organism-based; details: in vivo
Rattus norvegicus [4] = assay: AUC (0 to infinity) in Sprague-Dawley rat at 1 mg/kg, iv administered as bolus dose by LC-MS/MS method; format: ADME, organism-based; design: dose 1 mg/kg, time infinity, route intravenous; details: in vivo
[5] = Volume of distribution at steady state in Sprague-Dawley rat at 1 mg/kg, iv administered as bolus dose by LC-MS/MS method; format: ADME, organism-based; details: in vivo, read-out: Vdss
[6] = MRT (0 to t) in Sprague-Dawley rat at 1 mg/kg, iv administered as bolus dose by LC-MS/MS method; format: ADME, organism-based; details: in vivo
MGC-803 = assay: Cytotoxicity against human MGC803 cells measured after 72 hrs by MTT assay; format: functional, cell-based; details: MGC-803, 72 h
[7] = target: T1, Serine/threonine-protein kinase Nek2 (Homo sapiens, UniProt P51955); assay: Inhibition of N-terminal His6-tagged full-length recombinant human NEK2 expressed in baculovirus infected sf21 cells using biotin labelled-STK-3 substrate measured after 60 mins by HTRF assay
T1 sequence (P51955 whole entry): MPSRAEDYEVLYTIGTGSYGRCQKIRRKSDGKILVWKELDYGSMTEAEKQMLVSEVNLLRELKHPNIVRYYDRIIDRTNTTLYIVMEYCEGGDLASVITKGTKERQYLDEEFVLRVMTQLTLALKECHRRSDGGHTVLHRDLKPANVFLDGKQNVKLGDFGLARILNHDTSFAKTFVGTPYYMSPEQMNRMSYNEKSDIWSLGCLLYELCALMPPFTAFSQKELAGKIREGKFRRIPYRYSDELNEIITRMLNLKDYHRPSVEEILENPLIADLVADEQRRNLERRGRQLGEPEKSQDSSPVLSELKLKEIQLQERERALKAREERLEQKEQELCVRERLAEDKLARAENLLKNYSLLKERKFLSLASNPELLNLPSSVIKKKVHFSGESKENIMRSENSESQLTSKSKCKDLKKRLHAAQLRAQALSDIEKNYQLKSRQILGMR

Aurora kinase A = target: T2, Aurora kinase A (Homo sapiens, UniProt O14965); assay: Inhibition of Aurora A (unknown origin)
T2 sequence (O14965 whole entry): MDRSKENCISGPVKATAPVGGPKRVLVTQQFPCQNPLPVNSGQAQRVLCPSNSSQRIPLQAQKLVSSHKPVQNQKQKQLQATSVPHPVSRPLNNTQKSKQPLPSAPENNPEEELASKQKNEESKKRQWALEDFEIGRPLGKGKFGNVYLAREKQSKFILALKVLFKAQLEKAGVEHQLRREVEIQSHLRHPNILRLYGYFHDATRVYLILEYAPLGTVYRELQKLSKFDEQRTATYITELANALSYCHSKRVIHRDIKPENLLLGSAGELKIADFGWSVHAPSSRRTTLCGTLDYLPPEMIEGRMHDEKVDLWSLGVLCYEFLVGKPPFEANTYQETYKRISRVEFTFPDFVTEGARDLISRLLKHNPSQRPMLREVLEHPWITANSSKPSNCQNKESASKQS

Bel-7402 = assay: Cytotoxicity against human Bel7402 cells measured after 72 hrs by MTT assay; format: functional, cell-based; details: Bel-7402, 72 h
HCT-116 [8] = assay: Cytotoxicity against human HCT116 cells measured after 72 hrs by MTT assay; format: functional, cell-based; details: HCT-116, 72 h
HCT-116 [9] = assay: Antitumor activity against human HCT116 cells xenografted in BALB/c nu/nu mouse assessed as reduction in tumor volume at 20 mg/kg, ip administered twice daily for 21 days; format: functional, organism-based
HCT-116 [10] = assay: Induction of apoptosis in human HCT116 cells measured after 24 hrs by Annexin-V/PI staining based flow cytometry; format: functional, cell-based
HCT-116 [11] = assay: Cell cycle arrest in human HCT116 cells assessed as accumulation at G2/M phase at 0.5 to 1 uM measured after 24 hrs by propidium iodide staining based flow cytometry; format: functional
HCT-116 [12] = assay: Cell cycle arrest in human HCT116 cells assessed as G2/M phase accumulation by measuring >4N DNA content at 0.5 to 1 uM measured after 24 hrs by propidium iodide staining based flow cytometry; format: functional
Mus musculus = assay: Toxicity in BALB/c nu/nu mouse assessed as body weight loss at 20 mg/kg, ip administered twice daily for 21 days; format: organism-based; details: in vivo
HCT-116 [13] = assay: Antitumor activity against human HCT116 cells xenografted in BALB/c nu/nu mouse assessed as tumor growth inhibition at 20 mg/kg, ip administered twice daily for 21 days; format: functional; details: HCT-116, ip, read-out: TGI
HCT-116 [14] = assay: Induction of apoptosis in human HCT116 cells assessed as late apoptotic cells at 1 uM measured after 24 hrs by Annexin-V/PI staining based flow cytometry (reference value: […]); format: functional
HCT-116 [15] = assay: Induction of apoptosis in human HCT116 cells assessed as late apoptotic cells at 0.5 uM measured after 24 hrs by Annexin-V/PI staining based flow cytometry (reference value: […]); format: functional
[16] = target: Cyclin-dependent kinase 2 (Homo sapiens, UniProt P24941); assay: Inhibition of CDK2 (unknown origin)
[17] = target: MAP kinase-activated protein kinase 2 (Homo sapiens, UniProt P49137); assay: Inhibition of MAPKAPK2 (unknown origin)
HCT-116 [18] = assay: Induction of apoptosis in human HCT116 cells assessed as necrotic cells at 1 uM measured after 24 hrs by Annexin-V/PI staining based flow cytometry (reference value: 0.4%); format: functional
[19] = target: Ribosomal protein S6 kinase alpha-1 (Homo sapiens, UniProt Q15418); assay: Inhibition of RSK1 (unknown origin)
[20] = target: Dual specificity tyrosine-phosphorylation-regulated kinase 1A (Homo sapiens, UniProt Q13627); assay: Inhibition of DYRK1A (unknown origin)
HCT-116 [21] = assay: Induction of apoptosis in human HCT116 cells assessed as early apoptotic cells at 1 uM measured after 24 hrs by Annexin-V/PI staining based flow cytometry (reference value: 4%); format: functional
[22] = target: RAC-alpha serine/threonine-protein kinase (Homo sapiens, UniProt P31749); assay: Inhibition of AKT1 (unknown origin)
[23] = target: Cyclin-dependent kinase 4 (Homo sapiens, UniProt P11802); assay: Inhibition of CDK4 (unknown origin)
[24] = target: T3, Serine/threonine-protein kinase Chk1 (Homo sapiens, UniProt O14757); assay: Inhibition of CHK1 (unknown origin)
T3 sequence (O14757 whole entry): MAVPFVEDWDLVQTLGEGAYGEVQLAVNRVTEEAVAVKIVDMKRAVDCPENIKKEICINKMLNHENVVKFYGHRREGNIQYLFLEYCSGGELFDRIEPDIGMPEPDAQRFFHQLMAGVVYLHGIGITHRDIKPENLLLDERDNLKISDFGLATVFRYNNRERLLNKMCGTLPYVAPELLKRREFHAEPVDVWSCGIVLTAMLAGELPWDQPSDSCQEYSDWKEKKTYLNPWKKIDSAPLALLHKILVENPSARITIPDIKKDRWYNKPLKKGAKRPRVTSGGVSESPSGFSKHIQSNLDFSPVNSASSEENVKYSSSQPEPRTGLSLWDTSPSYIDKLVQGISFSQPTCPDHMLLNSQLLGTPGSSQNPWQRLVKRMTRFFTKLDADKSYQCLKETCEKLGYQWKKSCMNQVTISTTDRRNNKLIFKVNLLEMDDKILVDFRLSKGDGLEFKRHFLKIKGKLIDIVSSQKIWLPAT

[25] = target: Phosphatidylinositol 4,5-bisphosphate 3-kinase catalytic subunit alpha isoform (Homo sapiens, UniProt P42336); assay: Inhibition of PI3Kalpha (unknown origin)
[26] = target: Tyrosine-protein kinase ABL1 (Homo sapiens, UniProt P00519); assay: Inhibition of ABL (unknown origin)
HCT-116 [27] = assay: Induction of apoptosis in human HCT116 cells assessed as necrotic cells at 0.5 uM measured after 24 hrs by Annexin-V/PI staining based flow cytometry (reference value: 0.4%); format: functional
[28] = target: Glycogen synthase kinase-3 beta (Homo sapiens, UniProt P49841); assay: Inhibition of GSK3beta (unknown origin)
HCT-116 [29] = assay: Induction of apoptosis in human HCT116 cells assessed as early apoptotic cells at 0.5 uM measured after 24 hrs by Annexin-V/PI staining based flow cytometry (reference value: 4%); format: functional
[30] = target: Mitogen-activated protein kinase 14 (Homo sapiens, UniProt Q16539); assay: Inhibition of P38alpha (unknown origin)
Sequence of Mitogen-activated protein kinase 14 (Q16539 whole entry): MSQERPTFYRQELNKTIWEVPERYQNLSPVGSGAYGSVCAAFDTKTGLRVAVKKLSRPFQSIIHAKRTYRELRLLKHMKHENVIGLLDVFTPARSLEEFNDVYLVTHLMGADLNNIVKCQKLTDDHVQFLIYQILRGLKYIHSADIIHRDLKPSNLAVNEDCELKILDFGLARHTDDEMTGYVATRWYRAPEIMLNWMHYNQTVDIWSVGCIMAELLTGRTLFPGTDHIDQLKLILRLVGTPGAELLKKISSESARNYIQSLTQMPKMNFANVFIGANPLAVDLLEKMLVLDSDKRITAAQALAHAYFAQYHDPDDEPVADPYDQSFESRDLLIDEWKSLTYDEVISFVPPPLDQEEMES

Sequence of Glycogen synthase kinase-3 beta (P49841 whole entry): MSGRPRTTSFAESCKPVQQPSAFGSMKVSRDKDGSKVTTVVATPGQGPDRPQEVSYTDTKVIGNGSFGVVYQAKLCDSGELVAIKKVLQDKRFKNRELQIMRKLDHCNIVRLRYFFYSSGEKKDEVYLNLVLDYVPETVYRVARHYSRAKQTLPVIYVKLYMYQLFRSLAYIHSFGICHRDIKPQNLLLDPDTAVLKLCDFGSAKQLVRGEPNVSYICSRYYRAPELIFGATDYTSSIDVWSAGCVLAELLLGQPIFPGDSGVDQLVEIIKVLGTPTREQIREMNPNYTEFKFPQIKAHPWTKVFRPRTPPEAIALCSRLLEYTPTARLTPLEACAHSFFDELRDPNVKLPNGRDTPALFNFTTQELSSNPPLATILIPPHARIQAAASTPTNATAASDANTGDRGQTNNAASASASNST
Sequence of Phosphatidylinositol 4,5-bisphosphate 3-kinase catalytic subunit alpha isoform (P42336 whole entry, canonical isoform): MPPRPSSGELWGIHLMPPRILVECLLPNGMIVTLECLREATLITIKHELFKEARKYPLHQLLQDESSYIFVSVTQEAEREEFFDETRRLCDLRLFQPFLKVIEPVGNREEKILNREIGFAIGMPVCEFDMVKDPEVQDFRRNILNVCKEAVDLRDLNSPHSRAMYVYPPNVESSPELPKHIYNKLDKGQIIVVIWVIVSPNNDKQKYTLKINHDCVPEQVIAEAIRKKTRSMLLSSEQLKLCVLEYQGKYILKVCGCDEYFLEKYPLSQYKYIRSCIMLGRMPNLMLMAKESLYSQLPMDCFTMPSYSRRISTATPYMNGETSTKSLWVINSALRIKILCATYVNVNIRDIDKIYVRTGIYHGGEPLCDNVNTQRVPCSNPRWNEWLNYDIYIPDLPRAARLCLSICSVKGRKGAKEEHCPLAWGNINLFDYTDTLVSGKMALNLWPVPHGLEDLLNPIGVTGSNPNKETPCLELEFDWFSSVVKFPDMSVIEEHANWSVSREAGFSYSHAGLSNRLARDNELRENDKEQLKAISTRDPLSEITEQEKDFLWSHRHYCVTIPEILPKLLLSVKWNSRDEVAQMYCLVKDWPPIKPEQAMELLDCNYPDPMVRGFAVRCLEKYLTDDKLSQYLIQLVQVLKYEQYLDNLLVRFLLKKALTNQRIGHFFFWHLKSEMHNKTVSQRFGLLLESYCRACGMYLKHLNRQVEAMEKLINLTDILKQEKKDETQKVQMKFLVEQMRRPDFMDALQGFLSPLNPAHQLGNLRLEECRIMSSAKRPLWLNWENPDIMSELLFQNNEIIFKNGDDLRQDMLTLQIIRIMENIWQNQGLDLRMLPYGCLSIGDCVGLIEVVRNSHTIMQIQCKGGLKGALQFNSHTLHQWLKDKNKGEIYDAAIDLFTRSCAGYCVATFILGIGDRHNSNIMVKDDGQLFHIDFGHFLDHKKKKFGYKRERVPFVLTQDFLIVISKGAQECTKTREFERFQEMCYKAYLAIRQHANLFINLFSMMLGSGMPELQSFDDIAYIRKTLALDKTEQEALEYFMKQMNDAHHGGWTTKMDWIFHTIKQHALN
Sequence of RAC-alpha serine/threonine-protein kinase (P31749 whole entry): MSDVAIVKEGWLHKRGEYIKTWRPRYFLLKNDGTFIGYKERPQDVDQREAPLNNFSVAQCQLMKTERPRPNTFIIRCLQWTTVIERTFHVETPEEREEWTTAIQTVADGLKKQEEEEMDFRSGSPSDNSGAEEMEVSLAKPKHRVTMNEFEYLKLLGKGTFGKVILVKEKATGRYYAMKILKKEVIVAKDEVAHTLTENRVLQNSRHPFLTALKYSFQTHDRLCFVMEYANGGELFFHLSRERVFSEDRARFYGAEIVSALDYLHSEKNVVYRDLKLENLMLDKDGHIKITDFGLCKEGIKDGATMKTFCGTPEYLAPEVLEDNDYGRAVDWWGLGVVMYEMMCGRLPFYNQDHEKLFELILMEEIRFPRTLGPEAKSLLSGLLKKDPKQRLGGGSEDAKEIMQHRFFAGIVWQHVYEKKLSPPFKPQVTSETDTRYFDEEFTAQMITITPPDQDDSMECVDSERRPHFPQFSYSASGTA
Sequence of Ribosomal protein S6 kinase alpha-1 (Q15418 whole entry): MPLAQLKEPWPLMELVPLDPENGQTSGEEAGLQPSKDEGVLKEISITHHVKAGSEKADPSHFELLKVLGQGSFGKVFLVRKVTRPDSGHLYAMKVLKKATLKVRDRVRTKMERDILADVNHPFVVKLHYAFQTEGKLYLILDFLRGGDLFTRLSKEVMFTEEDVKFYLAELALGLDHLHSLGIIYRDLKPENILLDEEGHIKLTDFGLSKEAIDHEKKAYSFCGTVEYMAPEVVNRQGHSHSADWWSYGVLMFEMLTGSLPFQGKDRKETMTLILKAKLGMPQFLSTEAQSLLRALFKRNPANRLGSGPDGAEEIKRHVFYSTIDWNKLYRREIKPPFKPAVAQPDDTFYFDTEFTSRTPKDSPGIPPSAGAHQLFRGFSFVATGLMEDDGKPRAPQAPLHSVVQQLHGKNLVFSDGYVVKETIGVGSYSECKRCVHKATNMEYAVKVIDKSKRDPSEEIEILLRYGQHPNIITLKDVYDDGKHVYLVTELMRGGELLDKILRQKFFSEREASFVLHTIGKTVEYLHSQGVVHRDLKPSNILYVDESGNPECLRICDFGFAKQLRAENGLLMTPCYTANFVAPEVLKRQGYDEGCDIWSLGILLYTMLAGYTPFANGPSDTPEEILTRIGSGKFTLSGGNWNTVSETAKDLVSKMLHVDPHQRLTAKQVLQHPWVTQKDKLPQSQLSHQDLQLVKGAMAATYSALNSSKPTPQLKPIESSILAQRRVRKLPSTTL
Sequence of Cyclin-dependent kinase 4 (P11802 whole entry): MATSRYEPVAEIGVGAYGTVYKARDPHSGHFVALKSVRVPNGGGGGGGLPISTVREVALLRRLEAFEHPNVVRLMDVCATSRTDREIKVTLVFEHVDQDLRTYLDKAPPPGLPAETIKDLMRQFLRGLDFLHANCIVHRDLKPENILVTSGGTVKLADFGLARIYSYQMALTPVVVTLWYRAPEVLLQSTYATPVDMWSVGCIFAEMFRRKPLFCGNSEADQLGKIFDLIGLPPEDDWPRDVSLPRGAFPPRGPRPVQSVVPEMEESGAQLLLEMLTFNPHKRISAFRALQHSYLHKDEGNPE
Sequence of MAP kinase-activated protein kinase 2 (P49137 whole entry): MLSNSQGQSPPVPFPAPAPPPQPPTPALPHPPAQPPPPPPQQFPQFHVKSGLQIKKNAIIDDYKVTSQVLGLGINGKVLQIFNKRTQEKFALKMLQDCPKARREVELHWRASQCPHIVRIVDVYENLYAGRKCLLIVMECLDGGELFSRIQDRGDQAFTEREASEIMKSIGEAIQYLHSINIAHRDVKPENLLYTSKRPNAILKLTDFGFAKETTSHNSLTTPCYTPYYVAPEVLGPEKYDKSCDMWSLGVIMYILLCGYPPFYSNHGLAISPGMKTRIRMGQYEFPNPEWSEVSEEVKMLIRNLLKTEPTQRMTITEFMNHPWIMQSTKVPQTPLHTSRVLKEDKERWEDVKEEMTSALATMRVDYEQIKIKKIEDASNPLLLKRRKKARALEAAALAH
Sequence of Tyrosine-protein kinase ABL1 (P00519 whole entry): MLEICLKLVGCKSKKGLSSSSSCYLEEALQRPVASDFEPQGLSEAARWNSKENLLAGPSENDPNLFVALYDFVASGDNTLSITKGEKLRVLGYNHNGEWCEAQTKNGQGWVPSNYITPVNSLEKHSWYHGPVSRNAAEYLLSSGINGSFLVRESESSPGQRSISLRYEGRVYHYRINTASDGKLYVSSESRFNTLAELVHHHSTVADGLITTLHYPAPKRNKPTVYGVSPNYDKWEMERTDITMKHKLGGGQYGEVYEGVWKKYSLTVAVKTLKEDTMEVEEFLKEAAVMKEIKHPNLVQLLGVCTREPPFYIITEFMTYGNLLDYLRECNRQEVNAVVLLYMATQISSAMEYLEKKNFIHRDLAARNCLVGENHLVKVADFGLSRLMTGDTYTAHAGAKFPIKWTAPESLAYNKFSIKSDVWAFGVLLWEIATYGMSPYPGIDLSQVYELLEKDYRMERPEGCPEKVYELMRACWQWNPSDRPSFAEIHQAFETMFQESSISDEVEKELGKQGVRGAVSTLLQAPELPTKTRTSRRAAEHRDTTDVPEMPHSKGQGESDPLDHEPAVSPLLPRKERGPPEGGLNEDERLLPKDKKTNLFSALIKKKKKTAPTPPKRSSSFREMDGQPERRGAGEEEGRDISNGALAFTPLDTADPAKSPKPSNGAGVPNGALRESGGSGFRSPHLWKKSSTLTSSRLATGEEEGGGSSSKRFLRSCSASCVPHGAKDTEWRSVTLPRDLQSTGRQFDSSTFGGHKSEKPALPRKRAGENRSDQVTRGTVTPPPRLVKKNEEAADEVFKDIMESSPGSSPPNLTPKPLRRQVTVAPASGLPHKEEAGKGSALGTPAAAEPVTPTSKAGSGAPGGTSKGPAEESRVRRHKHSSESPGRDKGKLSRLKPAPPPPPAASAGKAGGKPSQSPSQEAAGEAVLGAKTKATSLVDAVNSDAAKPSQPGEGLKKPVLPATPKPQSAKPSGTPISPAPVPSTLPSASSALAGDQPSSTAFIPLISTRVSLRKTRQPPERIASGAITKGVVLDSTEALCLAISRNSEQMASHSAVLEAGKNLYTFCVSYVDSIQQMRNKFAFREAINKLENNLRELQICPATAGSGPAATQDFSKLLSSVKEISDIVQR

SMILES: CN(C)CCn1cc(-c2ccn3c(-c4ccc(C(N)=O)c(OCc5ccccc5)c4)cnc3c2)cn1
- AUCt (Rattus norvegicus [1]): 386 ng·h/mL
- clearance [2]: 42.4 mL/min/kg
- half-life [3]: 2.42 h
- AUC (Rattus norvegicus [4]): 405 ng·h/mL
- Vd [5]: 4.06 L/kg
- MRT last [6]: 1.68 h

SMILES: COc1cc(-c2cnc3cc(N4CCN(C)CC4)ccn23)ccc1C(N)=O
- pIC50 (MGC-803): < 4.52
- pIC50 [7]: 4.71

SMILES: CN(C)CCn1cc(-c2ccn3c(-c4ccc(C(N)=O)c(OCc5cccc(C(F)(F)F)c5)c4)cnc3c2)cn1
- pIC50 (Aurora kinase A): < 5.00
- AUCt (Rattus norvegicus [1]): 262 ng·h/mL
- pIC50 (MGC-803): 6.10
- clearance [2]: 62.8 mL/min/kg
- half-life [3]: 1.49 h
- pIC50 (Bel-7402): 5.56
- AUC (Rattus norvegicus [4]): 268 ng·h/mL
- pIC50 [7]: 8.15
- Vd [5]: 5.08 L/kg
- MRT last [6]: 1.38 h
- pIC50 (HCT-116 [8]): 5.89

SMILES: CN(C)CCn1cc(-c2ccn3c(-c4ccc(C(N)=O)c(OCc5cccc(F)c5)c4)cnc3c2)cn1 [listing 1 of 2 here]
- Activity (HCT-116 [9]): Active
- Activity (HCT-116 [10]): Dose-dependent effect
- Activity (HCT-116 [11]): Active
- Activity (HCT-116 [12]): Active

SMILES: CN1CCN(c2ccn3c(-c4ccc(C(N)=O)c(OCc5ccccc5)c4)cnc3c2)CC1
- pIC50 (MGC-803): 5.21
- pIC50 [7]: 5.49

SMILES: CC(Oc1cc(-c2cnc3cc(N4CCN(C)CC4)ccn23)ccc1C(N)=O)c1ccccc1C(F)(F)F (stereo not drawn)
- pIC50 (MGC-803): 4.91
- pIC50 [7]: 5.66

SMILES: CN(C)CCn1cc(-c2ccn3c(-c4ccc(C(N)=O)c(OCc5cccc(F)c5)c4)cnc3c2)cn1.O=C(O)CCC(=O)O.O=C(O)CCC(=O)O
- Activity (Mus musculus): Non-Toxic
- inhibition in vivo at 20 mg/kg (HCT-116 [13]): 36%

SMILES: CN(C)CCn1cc(-c2ccn3c(-c4ccc(C(N)=O)c(OCc5cccc(F)c5)c4)cnc3c2)cn1 [listing 2 of 2 here]
- pIC50 (Aurora kinase A): 5.28
- AUCt (Rattus norvegicus [1]): 495 ng·h/mL
- pIC50 (MGC-803): 6.28
- clearance [2]: 33.3 mL/min/kg
- half-life [3]: 1.72 h
- pIC50 (Bel-7402): 5.15
- Activity (HCT-116 [14]): 26.7%
- Activity (HCT-116 [15]): 20.1%
- pIC50 [16]: 6.43
- pIC50 [17]: < 5.00
- Activity (HCT-116 [18]): 3.5%
- AUC (Rattus norvegicus [4]): 507 ng·h/mL
- pIC50 [19]: 8.27
- pIC50 [20]: 8.19
- Activity (HCT-116 [21]): 27.8%
- pIC50 [22]: 6.22
- pIC50 [7]: 9.00
- pIC50 [23]: 6.36
- pIC50 [24]: 7.24
- pIC50 [25]: 5.21
- pIC50 [26]: 7.70
- Activity (HCT-116 [27]): 2.6%
- pIC50 [28]: 7.04
- Activity (HCT-116 [29]): 21.3%
- Vd [5]: 2.53 L/kg
- MRT last [6]: 1.3 h
- pIC50 [30]: < 5.00
- pIC50 (HCT-116 [8]): 6.08

SMILES: CN1CCN(c2ccn3c(-c4ccc(C(=O)NO)c(OCc5ccccc5C(F)(F)F)c4)cnc3c2)CC1
- pIC50 (MGC-803): 4.77
- pIC50 [7]: 5.00

SMILES: COC(=O)c1ccc(-c2cnc3cc(N4CCN(C)CC4)ccn23)cc1OC(C)c1ccccc1C(F)(F)F (stereo not drawn)
- pIC50 [7]: 4.37

SMILES: C[C@@H](Oc1cc(-c2cnc3cc(N4CCN(C)CC4)ccn23)ccc1C(N)=O)c1ccccc1C(F)(F)F
- pIC50 (MGC-803): 5.50
- pIC50 [7]: 5.92

SMILES: CNC(=O)c1ccc(-c2cnc3cc(N4CCN(C)CC4)ccn23)cc1OC(C)c1ccccc1C(F)(F)F (stereo not drawn)
- pIC50 [7]: 3.71
